Source: patent US20200131196A1 (Mount Tam Therapeutics, Inc., priority 2017, published 2020)

Legend:
U-87 MG = assay: OncoPanel cell proliferation assay, U-87 MG; assay type: cell-based, human; conditions: for GI50: read-out: Cell Count GI50
Experimental: (§1) Cells were grown in RPMI 1640, 10% FBS, 2 mM L-alanyl-L-glutamine, 1 mM Na pyruvate, or a special medium. Cells were seeded into 384-well plates and incubated in a humidified atmosphere of 5% CO2 at 37° C. Compounds were added the day following cell seeding. At the same time, a time zero untreated cell plate was generated. After a 3-day incubation period, cells were fixed and stained to allow fluorescence imaging of nuclei. Compounds (1 mM stock solutions) were serially diluted in half-log steps from the highest test concentration ([…]), and assayed over 10 concentrations with a maximum assay concentration of 0.1% DMSO. Automated fluorescence microscopy was carried out using a Molecular Devices ImageXpress Micro XL high-content imager, and images were collected with a 4× objective. 16-bit TIFF images were acquired and analyzed with MetaXpress 5.1.0.41 software.
(§2) Cell proliferation was measured by the fluorescence intensity of an incorporated nuclear dye. The output is referred to as the relative cell count, where the measured nuclear intensity is transformed to percent of control (POC) using the following formula: […]
(§3) Cellular response parameters were calculated using nonlinear regression to a sigmoidal single-site dose response model:
(§4) EC50 is the test compound concentration at the curve inflection point or half the effective response (parameter C of the fitted curve solution). GI50 is the concentration needed to reduce the observed growth by half (midway between the curve maximum and the time zero value). “Cell Count Activity Area” is an estimate of the integrated area above the curve (Barretina, et al. The Cancer Cell Line Encyclopedia enables predictive modelling of anticancer drug sensitivity. Nature 483: 603-607). […] In rare instances, values <0 or >10 may be observed. […] Curve-fitting, calculations, and report generation was performed using a custom data reduction engine and MathIQ based software (AIM).

CML-T1 = assay: OncoPanel cell proliferation assay, CML-T1; assay type: cell-based, human; conditions: for EC50: read-out: Cell Count EC50; for GI50: read-out: Cell Count GI50
Experimental: as §1, §2, §3, §4

DMS114 = assay: OncoPanel cell proliferation assay, DMS114; assay type: cell-based, human; conditions: for EC50: DMS-114, read-out: Cell Count EC50; for GI50: DMS-114, read-out: Cell Count GI50
Experimental: as §1, with “Cells” for “Cells were grown in RPMI 1640, 10% FBS, 2 mM L-alanyl-L-glutamine, 1 mM Na pyruvate, or a special medium. Cells”
as §2, §3
(§5) GI50 is the concentration needed to reduce the observed growth by half (midway between the curve maximum and the time zero value). […] In rare instances, values <0 or >10 may be observed. […] Curve-fitting, calculations, and report generation was performed using a custom data reduction engine and MathIQ based software (AIM).

SCaBER = assay: OncoPanel cell proliferation assay, SCaBER; assay type: cell-based, human; conditions: for GI50: read-out: Cell Count GI50
Experimental: as §1, §2, §3, §4

RL95-2 = assay: OncoPanel cell proliferation assay, RL95-2; assay type: cell-based, human; conditions: for GI50: read-out: Cell Count GI50
Experimental: as §1, §2, §3, §4

Hs 852.T = assay: OncoPanel cell proliferation assay, Hs 852.T; assay type: cell-based, human; conditions: for GI50: read-out: Cell Count GI50
Experimental: as §1, §2, §3, §4

AsPC-1 = assay: OncoPanel cell proliferation assay, AsPC-1; conditions: for Cell Count Activity Area: AsPC-1
Experimental: (§6) Cells were seeded into 384-well plates and incubated in a humidified atmosphere of 5% CO2 at 37° C. Compounds were added the day following cell seeding. At the same time, a time zero untreated cell plate was generated. After a 3-day incubation period, cells were fixed and stained to allow fluorescence imaging of nuclei. Compounds (1 mM stock solutions) were serially diluted in half-log steps from the highest test concentration (1 micromol), and assayed over 10 concentrations with a maximum assay concentration of 0.1% DMSO. Automated fluorescence microscopy was carried out using a Molecular Devices ImageXpress Micro XL high-content imager, and images were collected with a 4× objective. 16-bit TIFF images were acquired and analyzed with MetaXpress 5.1.0.41 software.

OVCAR3 = assay: OncoPanel cell proliferation assay, OVCAR3; conditions: for GI50: OVCAR-3, read-out: Cell Count GI50; for Cell Count Activity Area: OVCAR3
Experimental: as §6

SK-UT-1 = assay: OncoPanel cell proliferation assay, SK-UT-1; conditions: for EC50: SK-UT-1, read-out: Cell Count EC50; for GI50: SK-UT-1, read-out: Cell Count GI50; for Cell Count Activity Area: SK-UT-1
Experimental: as §6

PC-3 = assay: OncoPanel cell proliferation assay, PC-3; conditions: for EC50: PC-3, read-out: Cell Count EC50; for GI50: PC-3, read-out: Cell Count GI50; for Cell Count Activity Area: PC-3
Experimental: as §6

SW684 = assay: OncoPanel cell proliferation assay, SW684; assay type: cell-based, human; conditions: for GI50: read-out: Cell Count GI50
Experimental: as §1, with “Cells” for “Cells were grown in RPMI 1640, 10% FBS, 2 mM L-alanyl-L-glutamine, 1 mM Na pyruvate, or a special medium. Cells”
as §2, §3, §5

SNU-5 = assay: OncoPanel cell proliferation assay, SNU-5; assay type: cell-based, human; conditions: for EC50: read-out: Cell Count EC50; for GI50: read-out: Cell Count GI50
Experimental: as §1, with “Cells” for “Cells were grown in RPMI 1640, 10% FBS, 2 mM L-alanyl-L-glutamine, 1 mM Na pyruvate, or a special medium. Cells”
as §2, §3, §5

[1] = Homo sapiens, read-out: Cell Count EC50
[2] = Homo sapiens, read-out: Cell Count IC50

In the case of `CO[C@H]1C[C@@H]2CC[C@@H](C)[C@@](O)(O2)C(=O)C(=O)N2CCCC[C@H]2C(=O)O[C@H]([C@H](C)C[C@@H]2CC[C@@H](O)[C@H](OC)C2)CC(=O)[C@H](C)/C=C(\C)[C@@H](O)[C@@H](OC)C(=O)[C@H](C)C[C@H](C)/C=C/C=C/C=C/1C` [Rapamycin, reference compound], the “Cell Count Activity Area” value (U-87 MG) is reported as 3.79, the EC50 (U-87 MG; [1]) is reported as 0.104 nM and the GI50 (U-87 MG; Homo sapiens) is reported as 0.384 nM. For the same compound, the IC50 (U-87 MG; [2]) was over 1000 nM, the “Cell Count Activity Area” value (CML-T1) was 4.56 and the EC50 (CML-T1; Homo sapiens) was 0.189 nM. For the same compound, the GI50 (CML-T1; Homo sapiens) was 0.694 nM, the IC50 (CML-T1; [2]) was 1.93 nM and the “Cell Count Activity Area” value (DMS114) was 4.14. It also gave an EC50 (DMS114; Homo sapiens) of 0.0747 nM, a GI50 (DMS114; Homo sapiens) of 0.0478 nM and an IC50 (DMS114; Homo sapiens, DMS-114, read-out: Cell Count IC50) of over 1000 nM. The “Cell Count Activity Area” value (SCaBER) was 5.25, the EC50 (SCaBER; [1]) was 0.0377 nM and the GI50 (SCaBER; Homo sapiens) was 0.158 nM. For the same compound, the IC50 (SCaBER; [2]) was 0.321 nM, the “Cell Count Activity Area” value (RL95-2) was 4.24 and the EC50 (RL95-2; [1]) was 0.0705 nM. The GI50 (RL95-2; Homo sapiens) was 0.13 nM, the IC50 (RL95-2; [2]) was over 1000 nM and the “Cell Count Activity Area” value (Hs 852.T) was 1.43. For the same compound, the EC50 (Hs 852.T; [1]) was over 1000 nM, the GI50 (Hs 852.T; Homo sapiens) was over 1000 nM and the IC50 (Hs 852.T; [2]) was over 1000 nM. The “Cell Count Activity Area” value (AsPC-1) was 1.48, the EC50 (AsPC-1; Homo sapiens, ASPC1, read-out: Cell Count EC50) was over 1000 nM and the GI50 (AsPC-1; Homo sapiens, ASPC1, read-out: Cell Count GI50) was over 1000 nM. It also gave an IC50 (AsPC-1; Homo sapiens, ASPC1, read-out: Cell Count IC50) of over 1000 nM, an EC50 (OVCAR3; Homo sapiens, OVCAR-3, read-out: Cell Count EC50) of 1.53 nM and a GI50 (OVCAR3; Homo sapiens) of 124 nM. For the same compound, the IC50 (OVCAR3; Homo sapiens, OVCAR-3, read-out: Cell Count IC50) was over 1000 nM, the “Cell Count Activity Area” value (OVCAR3) was 2.08 and the EC50 (SK-UT-1; Homo sapiens) was 0.2 nM. For the same compound, the GI50 (SK-UT-1; Homo sapiens) was over 1000 nM, the IC50 (SK-UT-1; Homo sapiens, SK-UT-1, read-out: Cell Count IC50) was over 1000 nM and the “Cell Count Activity Area” value (SK-UT-1) was 3.23. The EC50 (PC-3; Homo sapiens) was 0.23 nM, the GI50 (PC-3; Homo sapiens) was 2.63 nM and the IC50 (PC-3; Homo sapiens, PC-3, read-out: Cell Count IC50) was over 1000 nM. For the same compound, the “Cell Count Activity Area” value (PC-3) was 3.57, the “Cell Count Activity Area” value (SW684) was 2.81 and the GI50 (SW684; Homo sapiens) was 1.97 nM. The IC50 (SW684; [2]) was over 1000 nM, the EC50 (SNU-5; Homo sapiens) was 0.885 nM and the GI50 (SNU-5; Homo sapiens) was 24 nM. The IC50 (SNU-5; [2]) was over 1000 nM.
With `CN[C@@H]1C[C@H]2O[C@@](C)([C@@H]1OC)n1c3ccccc3c3c4c(c5c6ccccc6n2c5c31)C(=O)NC4` [Staurosporine, reference compound] the “Cell Count Activity Area” value (U-87 MG) was 3.25, the GI50 (U-87 MG; Homo sapiens) was 0.836 nM and the “Cell Count Activity Area” value (CML-T1) was 4.13. The EC50 (CML-T1; Homo sapiens) was 7.06 nM, the GI50 (CML-T1; Homo sapiens) was 6.96 nM and the EC50 (DMS114; Homo sapiens) was 21 nM. The GI50 (DMS114; Homo sapiens) was 3.35 nM, the “Cell Count Activity Area” value (SCaBER) was 6.03 and the GI50 (SCaBER; Homo sapiens) was 0.474 nM. For the same compound, the “Cell Count Activity Area” value (RL95-2) was 3.87, the GI50 (RL95-2; Homo sapiens) was 6.83 nM and the “Cell Count Activity Area” value (Hs 852.T) was 3.16. The GI50 (Hs 852.T; Homo sapiens) was 1.35 nM, the “Cell Count Activity Area” value (AsPC-1) was 3.28 and the GI50 (OVCAR3; Homo sapiens) was 6.11 nM. For the same compound, the “Cell Count Activity Area” value (OVCAR3) was 3.41, the EC50 (SK-UT-1; Homo sapiens) was 21.8 nM and the GI50 (SK-UT-1; Homo sapiens) was 19.5 nM. For the same compound, the “Cell Count Activity Area” value (SK-UT-1) was 3.46, the EC50 (PC-3; Homo sapiens) was 0.903 nM and the GI50 (PC-3; Homo sapiens) was 1.07 nM. The “Cell Count Activity Area” value (PC-3) was 4.67, the GI50 (SW684; Homo sapiens) was 0.95 nM and the “Cell Count Activity Area” value (SNU-5) was 2.58. It also gave an EC50 (SNU-5; Homo sapiens) of 6.44 nM and a GI50 (SNU-5; Homo sapiens) of 10.3 nM.
